Here are results for 49 compounds from patent US11124494B2, “Aryl heterocyclic piperidinone formyl peptide 2 receptor and formyl peptide 1 receptor agonists” (Bristol-Myers Squibb Company, priority 2017, dated 2021).

The term pEC50 denotes −log10 of the EC50, conventionally taken in molar units.

For the assay, the target named is human FPR2 receptors (Homo sapiens (Human), UniProt P25090). Put plainly: FPR2 cyclic adenosine monophosphate (cAMP) assay. It counts as cell-based. Particulars: hFPR2 Assay, CHO cells overexpressing human FPR2; potency bins; read-out: hFPR2 agonist activity EC50 values. The protocol:
FPR2 and FPR1 Cyclic Adenosine Monophosphate (cAMP) Assays. A mixture of forskolin (5 μM final for FPR2 or 10 μM final for FPR1) and IBMX (200 μM final) were added to 384-well Proxiplates (Perkin-Elmer) pre-dotted with test compounds in DMSO (1% final) at final concentrations in the range of 1.7 nM to 100 μM. Chinese Hamster Ovary cells (CHO) overexpressing human FPR1 or human FPR2 receptors were cultured in F-12 (Ham's) medium supplemented with 10% qualified FBS, 250 μg/ml zeocin and 300 μg/ml hygromycin (Life Technologies). Reactions were initiated by adding 2,000 human FPR2 cells per well or 4,000 human FPR1 cells per well in Dulbecco's PBS (with calcium and magnesium) (Life Technologies) supplemented with 0.1% BSA (Perkin-Elmer). The reaction mixtures were incubated for 30 min at room temperature. The level of intracellular cAMP was determined using the HTRF HiRange cAMP assay reagent kit (Cisbio) according to manufacturer's instruction. Solutions of cryptate conjugated anti-cAMP and d2 flurorophore-labelled cAMP were made in a supplied lysis buffer separately. Upon completion of the reaction, the cells were lysed with equal volume of the d2-cAMP solution and anti-cAMP solution. After a 1-h room temperature incubation, time-resolved fluorescence intensity was measured using the Envision (Perkin-Elmer) at 400 nm excitation and dual emission at 590 nm and 665 nm. A calibration curve was constructed with an external cAMP standard at concentrations ranging from 1 μM to 0.1 pM by plotting the fluorescent intensity ratio from 665 nm emission to the intensity from the 590 nm emission against cAMP concentrations. The potency and activity of a compound to inhibit cAMP production was then determined by fitting to a 4-parametric logistic equation from a plot of cAMP level versus compound concentrations.

Structures are written as SMILES. pEC50: −log10 of the molar value. Some results are limits rather than exact numbers.

human FPR2 receptors, sequence (P25090 whole entry): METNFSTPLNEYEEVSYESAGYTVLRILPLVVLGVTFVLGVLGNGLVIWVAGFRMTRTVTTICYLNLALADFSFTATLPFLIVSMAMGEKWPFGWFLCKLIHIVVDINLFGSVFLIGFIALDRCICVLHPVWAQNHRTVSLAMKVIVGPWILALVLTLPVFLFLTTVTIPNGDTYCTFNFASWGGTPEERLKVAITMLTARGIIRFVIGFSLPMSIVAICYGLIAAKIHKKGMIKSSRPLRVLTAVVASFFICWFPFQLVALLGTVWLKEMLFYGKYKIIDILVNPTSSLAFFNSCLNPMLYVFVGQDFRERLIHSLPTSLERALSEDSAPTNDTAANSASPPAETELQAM

Regarding `CS(=O)(=O)NCC1(c2ccc(N3CCC[C@@H](NC(=O)Nc4ccc(C(F)(F)F)nc4)C3=O)cc2)CCC1` [Example 1, (R)—N-((1-(4-(2-Oxo-3-(3-(6-(trifluoromethyl)pyridin-3-yl)ureido)piperidin-1-yl)phenyl)cyclobutyl)methyl)methanesulfonamide], the pEC50 was no less than 8.00.
The value for `CS(=O)(=O)NCC1(c2ccc(N3CCC[C@@H](NC(=O)Nc4ccc(C(F)(F)F)nc4)C3=O)cc2F)CC1` [Example 2] was no less than 8.00; that for `O=C(Nc1ccc(C(F)(F)F)nc1)N[C@@H]1CCCN(c2ccc(C3(CO)CC3)cc2)C1=O` [Example 3] was 5.90 to 7.00; that for `CS(=O)(=O)NCC1(c2ccc(N3CCC[C@@H](NC(=O)Nc4ccc(C(F)(F)F)cn4)C3=O)c(F)c2)CC1` [Example 4] was 7.00 to 8.00.
For `COc1cnc(NC(=O)N[C@@H]2CCCN(c3ccc(C4(CNS(C)(=O)=O)CC4)c(F)c3)C2=O)cn1` [Example 5], the pEC50 is no less than 8.00.
Next, `COc1cnc(NC(=O)N[C@@H]2CCCN(c3ccc(C4(CNS(C)(=O)=O)CCC4)cc3)C2=O)cn1` [Example 7]: no less than 8.00; `Cc1cnc(NC(=O)N[C@@H]2CCCN(c3ccc(C4(CNS(C)(=O)=O)CCC4)cc3)C2=O)cn1` [Example 8]: no less than 8.00; `COc1cnc(NC(=O)N[C@@H]2CCCN(c3ccc(C4(CNS(C)(=O)=O)CC4)cc3)C2=O)cn1` [Example 9]: no less than 8.00.
For the compound `COc1cnc(NC(=O)N[C@H]2CCCN(c3ccc(C4(CNS(C)(=O)=O)CCC4)cc3)C2=O)cn1` [Example 10], the negative logarithm of the EC50 (pEC50) was 7.00 to 8.00.
Take `COc1cnc(NC(=O)N[C@H]2CCCN(c3ccc(C4(CNS(C)(=O)=O)CC4)cc3)C2=O)cn1` [Example 11]: the pEC50 is 5.90 to 7.00.
Next, `CS(=O)(=O)NCC1(c2ccc(N3CCC[C@H](NC(=O)Nc4cnc(Cl)cn4)C3=O)cc2)CCC1` [Example 12]: no less than 8.00.
Consider `CS(=O)(=O)NCC1(c2ccc(N3CCC[C@@H](NC(=O)Nc4ncc(Cl)cc4Cl)C3=O)cc2)CCC1` [Example 13], for which the pEC50 is 7.00 to 8.00.
Next, `CS(=O)(=O)NCC1(c2ccc(N3CCC[C@@H](NC(=O)Nc4ncc(C(F)(F)F)cc4F)C3=O)cc2)CCC1` [Example 14]: no less than 8.00.
Next, `CS(=O)(=O)NCC1(c2ccc(N3CCC[C@H](NC(=O)Nc4ccc(C(F)(F)F)cc4)C3=O)cc2F)CC1` [Example 15]: 7.00 to 8.00; `CS(=O)(=O)NCC1(c2ccc(N3CCC[C@@H](NC(=O)Nc4ncc(C(F)(F)F)cn4)C3=O)cc2)CC1` [Example 16]: 7.00 to 8.00.
As for `CS(=O)(=O)NCC1(c2ccc(N3CCC[C@@H](NC(=O)Nc4ncc(C(F)(F)F)cc4F)C3=O)cc2F)CC1` [Example 17], the pEC50 was 7.00 to 8.00.
The value for `CS(=O)(=O)NCC1(c2ccc(N3CCC[C@@H](NC(=O)Nc4cnc(Cl)cn4)C3=O)cc2F)CC1` [Example 19] was no less than 8.00; that for `CS(=O)(=O)NCC1(c2ccc(N3CCC[C@@H](NC(=O)Nc4ncc(Cl)cc4F)C3=O)cc2F)CC1` [Example 20] was no less than 8.00.
The value for `CS(=O)(=O)NCC1(c2ccc(N3CCC[C@@H](NC(=O)Nc4ccc(OC(F)F)nc4)C3=O)cc2F)CC1` [Example 21] was 7.00 to 8.00.
Next, `CS(=O)(=O)NCC1(c2ccc(N3CCC[C@@H](NC(=O)Nc4ncc(Cl)cc4Cl)C3=O)cc2F)CC1` [Example 22]: 5.90 to 7.00.
Consider `CS(=O)(=O)NCC1(c2ccc(N3CCC[C@@H](NC(=O)Nc4ccc(Cl)cn4)C3=O)cc2)CC1` [Example 23], for which the pEC50 is no less than 8.00.
Regarding `COc1ccc(NC(=O)N[C@@H]2CCCN(c3ccc(C4(CNS(C)(=O)=O)CC4)cc3)C2=O)nc1` [Example 24], the pEC50 was no less than 8.00.
Next, `Cc1cnc(NC(=O)N[C@@H]2CCCN(c3ccc(C4(CNS(C)(=O)=O)CC4)cc3)C2=O)cn1` [Example 25]: no less than 8.00.
The value for `CS(=O)(=O)NCC1(c2ccc(N3CCC[C@@H](NC(=O)Nc4ccc(C(F)(F)F)cn4)C3=O)cc2F)CC1` [Example 26] was 7.00 to 8.00; that for `CS(=O)(=O)NCC1(c2ccc(N3CCC[C@@H](NC(=O)Nc4ccc(C(F)(F)F)cn4)C3=O)cc2)CCC1` [Example 28] was no less than 8.00.
The value for `CS(=O)(=O)NCC1(c2ccc(N3CCC[C@@H](NC(=O)Nc4ccc(C(F)(F)F)cn4)C3=O)cc2)CCCC1` [Example 29] was 7.00 to 8.00.
Turning to `CS(=O)(=O)NCC1(c2ccc(N3CCC[C@H](NC(=O)Nc4ccc(C(F)(F)F)nc4)C3=O)cc2)CCC1` [Example 30], the pEC50 was 5.90 to 7.00.
Next, `CS(=O)(=O)NCC1(c2ccc(N3CCC[C@@H](NC(=O)Nc4ccc(C(F)(F)F)nc4)C3=O)cc2)CCCC1` [Example 31]: no less than 8.00; `CS(=O)(=O)NCC1(c2ccc(N3CCC[C@H](NC(=O)Nc4ccc(C(F)(F)F)nc4)C3=O)cc2)CCCC1` [Example 32]: 5.90 to 7.00.
Next, `CS(=O)(=O)NCC1(c2ccc(N3CCC[C@@H](NC(=O)Nc4ccc(C(F)(F)F)nc4)C3=O)cc2)CC1` [Example 33]: no less than 8.00.
Next, `COc1cnc(NC(=O)N[C@@H]2CCCN(c3ccc(C4(CNS(C)(=O)=O)CC4)cc3)C2=O)c(F)c1` [Example 34]: 7.00 to 8.00.
`CS(=O)(=O)NCC1(c2ccc(N3CCC[C@@H](NC(=O)Nc4ncc(Cl)cc4Cl)C3=O)cc2)CC1` [Example 35]: the pEC50 is 5.90 to 7.00.
`CS(=O)(=O)NCC1(c2ccc(N3CCC[C@@H](NC(=O)Nc4ccc(OC(F)F)nc4)C3=O)cc2)CC1` [Example 36]: the negative logarithm of the EC50 (pEC50) is no less than 8.00.
As for `CS(=O)(=O)NCC1(c2ccc(N3CCC[C@@H](NC(=O)Nc4cnc(C#N)cn4)C3=O)cc2)CC1` [Example 37], the pEC50 is 7.00 to 8.00.
`CS(=O)(=O)NCC1(c2ccc(N3CCC[C@@H](NC(=O)Nc4ccc(OC(F)F)nc4)C3=O)cc2)CC1` [Example 38]: the pEC50 was 5.90 to 7.00.
Next, `CS(=O)(=O)NCC1(c2ccc(N3CCC[C@@H](NC(=O)Nc4ncc(Cl)cc4F)C3=O)cc2)CC1` [Example 39]: no less than 8.00; `CS(=O)(=O)NCC1(c2ccc(N3CCC[C@@H](NC(=O)Nc4ncc(C(F)(F)F)cc4F)C3=O)cc2)CC1` [Example 40]: 7.00 to 8.00; `CS(=O)(=O)NCC1(c2ccc(N3CCC[C@H](NC(=O)Nc4ccc(C(F)(F)F)cc4)C3=O)cc2)CC1` [Example 43]: 7.00 to 8.00.
Regarding `CS(=O)(=O)NCC1(c2ccc(N3CCC[C@H](NC(=O)Nc4ccc(C(F)(F)F)nc4)C3=O)cc2)CC1` [Example 45], the pEC50 is 5.90 to 7.00.
Next, `CS(=O)(=O)NCC1(c2ccc(N3CCC[C@@H](NC(=O)Nc4ccc(C(F)(F)F)cn4)C3=O)cc2)CC1` [Example 46]: no less than 8.00.
The value for `CS(=O)(=O)NCC1(c2ccc(N3CCC[C@H](NC(=O)Nc4ccc(C(F)(F)F)cn4)C3=O)cc2)CC1` [Example 47] was 5.90 to 7.00; that for `N#CC1(c2ccc(N3CCC[C@H](NC(=O)Nc4ccc(C(F)(F)F)cc4)C3=O)cc2)CC1` [Example 48] was 5.90 to 7.00.
Next, `N#CC1(c2ccc(N3CCC[C@@H](NC(=O)Nc4ccc(C(F)(F)F)cc4)C3=O)cc2)CC1` [Example 49]: no less than 8.00.
For `O=C(Nc1ccc(Cl)cc1)N[C@@H]1CCCN(c2ccc(C3CCOCC3)cc2)C1=O` [Example 50], the pEC50 was no less than 8.00.
Next, `O=C(Nc1ncc(Cl)cc1F)N[C@@H]1CCCN(c2ccc(C3(CN4CCOCC4)CC3)cc2)C1=O` [Example 54, (R)-1-(5-chloro-3-fluoropyridin-2-yl)-3-(1-(4-(1-(morpholinomethyl)cyclopropyl)phenyl)-2-oxopiperidin-3-yl)urea]: 5.90 to 7.00.
The value for `O=C(Nc1ccc(C(F)(F)F)nc1)N[C@@H]1CCCN(c2ccc(C3(CN4CCCC4)CCC3)cc2)C1=O` [Example 56, (R)-1-(2-oxo-1-(4-(1-(pyrrolidin-1-ylmethyl)cyclobutyl)phenyl)piperidin-3-yl)-3-(6-(trifluoromethyl)pyridin-3-yl)urea] was 5.90 to 7.00; that for `O=C(Nc1ccc(C(F)(F)F)cn1)N[C@@H]1CCCN(c2ccc(C3(CN4CCCC4)CCC3)cc2)C1=O` [Example 59, (R)-1-(2-oxo-1-(4-(1-(pyrrolidin-1-ylmethyl)cyclobutyl)phenyl)piperidin-3-yl)-3-(5-(trifluoromethyl)pyridin-2-yl)urea] was 5.90 to 7.00; that for `O=C(Nc1ccc(C(F)(F)F)cn1)N[C@@H]1CCCN(c2ccc(C3(CN4CCCC4)CCCC3)cc2)C1=O` [Example 60, (R)-1-(2-oxo-1-(4-(1-(pyrrolidin-1-ylmethyl)cyclopentyl)phenyl)piperidin-3-yl)-3-(5-(trifluoromethyl)pyridin-2-yl)urea] was 5.90 to 7.00.
Next, `O=C(Nc1ccc(C(F)(F)F)nc1)N[C@@H]1CCCN(c2ccc(C3(CN4CCOCC4)CCCC3)cc2)C1=O` [Example 61, (R)-1-(1-(4-(1-(morpholinomethyl)cyclopentyl)phenyl)-2-oxopiperidin-3-yl)-3-(6-(trifluoromethyl)pyridin-3-yl)urea]: 5.90 to 7.00.
